{"source": "patent US4132778A", "about": "“Antibiotic A-32887” (Eli Lilly and Company, priority 1977, dated 1979)", "key": {"[1]": {"tested_on": "Bacteriodes melaninogenicus 2736", "assay": "Standard agar-dilution assay, anaerobic bacteria, Table IX", "type": "cell-based", "details": "24-hour incubation"}, "[2]": {"tested_on": "Fusobacterium necrophorum", "assay": "Standard agar-dilution assay, anaerobic bacteria, Table IX", "type": "cell-based", "details": "24-hour incubation"}, "Peptococcus prevoti": {"tested_on": "Peptococcus prevoti", "assay": "Standard agar-dilution assay, anaerobic bacteria, Table IX", "type": "cell-based", "details": "24-hour incubation"}, "rumen flora": {"tested_on": "rumen flora", "assay": "Rumen volatile-fatty-acid (VFA) production test in flasks (Table XIV)", "details": "1 mcg/ml"}, "[3]": {"tested_on": "Streptococcus sp. (Group D)", "assay": "Conventional disc-diffusion method, Table VII", "type": "cell-based", "source_text": "(§1) The activity of A-32887 (Na-K salt) against illustrative bacteria, as measured by the conventional disc-diffusion method, is summarized in Table VI."}, "[4]": {"tested_on": "Streptococcus pyogenes (Group A)", "assay": "Conventional disc-diffusion method, Table VII", "type": "cell-based", "source_text": "as §1"}, "Diplococcus pneumoniae": {"tested_on": "Diplococcus pneumoniae", "assay": "Conventional disc-diffusion method, Table VII", "type": "cell-based", "source_text": "as §1"}, "[5]": {"tested_on": "Staphylococcus aureus 3055", "assay": "Conventional disc-diffusion method, Table VII", "type": "cell-based", "source_text": "as §1"}, "Clostridium perfringens": {"tested_on": "Clostridium perfringens", "type": "cell-based", "details": "24-hour incubation"}, "[6]": {"tested_on": "Peptococcus asaccharolyticus", "assay": "Standard agar-dilution assay, anaerobic bacteria, Table IX", "type": "cell-based", "details": "24-hour incubation"}, "[7]": {"tested_on": "Bacteriodes fragilis ssp thetaiotaomicron", "assay": "Standard agar-dilution assay, anaerobic bacteria, Table IX", "type": "cell-based", "details": "24-hour incubation"}, "[8]": {"tested_on": "E. tenella AND E. acervulina", "assay": "Anticoccidial feeding test in chicks, E. tenella and E. acervulina (Table XII)", "type": "in vivo", "parameters": "Average Lesion Score, Intestinal / Average Lesion Score, Cecal: scale not given here", "details": "for Percent Mortality: due to coccidiosis; for Percent Weight Gain: normal controls = 100%", "protocol": "^1 6 replicates; 5 birds each\n^2 Infection inoculum 48 hours post-medication onset"}, "[9]": {"tested_on": "Bacteriodes fragilis ssp fragilis 111", "assay": "Standard agar-dilution assay, anaerobic bacteria, Table IX", "type": "cell-based", "details": "24-hour incubation", "protocol": "(§2) Table IX summarizes the MIC's at which A-32887 (Na-K salt) inhibits various anaerobic bacteria, as determined by standard agar-dilution assay. End points were read after 24-hour incubation."}, "Bacteriodes vulgatis": {"tested_on": "Bacteriodes vulgatis", "assay": "Standard agar-dilution assay, anaerobic bacteria, Table IX", "type": "cell-based", "details": "24-hour incubation", "protocol": "as §2"}, "[10]": {"tested_on": "Bacteriodes melaninogenicus 1856/28", "assay": "Standard agar-dilution assay, anaerobic bacteria, Table IX", "type": "cell-based", "details": "24-hour incubation", "protocol": "as §2"}, "Clostridium septicum": {"tested_on": "Clostridium septicum", "assay": "Standard agar-dilution assay, anaerobic bacteria, Table IX", "type": "cell-based", "details": "24-hour incubation", "protocol": "as §2"}, "Actinomyces israelii": {"tested_on": "Actinomyces israelii", "assay": "Standard agar-dilution assay, anaerobic bacteria, Table IX", "type": "cell-based", "details": "24-hour incubation", "protocol": "as §2"}, "ATPase": {"tested_on": "ATPase", "assay": "In vitro ATPase inhibition test using NaCl", "type": "biochemical", "source_text": "In yet another aspect, the A-32887 compounds are active as inhibitors of the enzyme ATPase. ATPase, an alkali-metal-sensitive enzyme found in cell membranes, is involved in the energy necessary for active transport. \"Active transport\" refers to the energy-requiring series of operations whereby intracellular and extracellular fluids maintain their compositions. Inhibitors of ATPase reduce the energy required for active transport."}}, "data": [{"smiles": "CO[C@H]1CC[C@H](OC2[C@@H](C)[C@@](C)(O)O[C@H]([C@H]3CC[C@H]([C@@H]4CC[C@H]([C@@]5(C)O[C@]6(O[C@H](C[C@@H]7O[C@](O)([C@@H](O)C(=O)O)[C@@H](C)[C@H](OC)[C@@]7(C)OC)C[C@@H](OC)[C@H]6C)[C@H](C)[C@H]5OC)O4)O3)[C@H]2C)O[C@@H]1C.[K+].[Na+]", "note": "(stereo partly shown) [A-32887 (Na-K salt)]", "values": [{"measurement": "MIC", "setting": "[1]", "result": 2, "unit": "µg/mL"}, {"measurement": "MIC", "setting": "[2]", "result": 32, "unit": "µg/mL"}, {"measurement": "MIC", "setting": "Peptococcus prevoti", "result": "≤ 0.5", "unit": "µg/mL"}, {"measurement": "Ratio of Treated to Control, Molar % Acetate", "setting": "rumen flora", "result": 0.5744}, {"measurement": "Ratio of Treated to Control, Molar % Butyrate", "setting": "rumen flora", "result": 1.1116}, {"measurement": "Ratio of Treated to Control, Total VFA mM/l.", "setting": "rumen flora", "result": 0.7498}, {"measurement": "Ratio of Treated to Control, Molar % Propionate", "setting": "rumen flora; *P<0.01", "result": 1.4191}, {"measurement": "Zone of Inhibition", "setting": "[3]; 30 mcg/disc", "result": 13.7, "unit": "mm"}, {"measurement": "Zone of Inhibition", "setting": "[3]; 300 mcg/disc", "result": 14.7, "unit": "mm"}, {"measurement": "Zone of Inhibition", "setting": "[4]; 30 mcg/disc", "result": 14.0, "unit": "mm"}, {"measurement": "Zone of Inhibition", "setting": "[4]; 300 mcg/disc", "result": 17.5, "unit": "mm"}, {"measurement": "Zone of Inhibition", "setting": "Diplococcus pneumoniae; 30 mcg/disc", "result": 16.0, "unit": "mm"}, {"measurement": "Zone of Inhibition", "setting": "Diplococcus pneumoniae; 300 mcg/disc", "result": 18.0, "unit": "mm"}, {"measurement": "Zone of Inhibition", "setting": "[5]; 30 mcg/disc", "result": 12.0, "unit": "mm"}, {"measurement": "Zone of Inhibition", "setting": "[5]; 300 mcg/disc", "result": 15.6, "unit": "mm"}, {"measurement": "MIC", "setting": "Clostridium perfringens", "result": "≤ 0.5", "unit": "µg/mL"}, {"measurement": "MIC", "setting": "[6]", "result": "≤ 0.5", "unit": "µg/mL"}, {"measurement": "MIC", "setting": "[7]", "result": 2, "unit": "µg/mL"}, {"measurement": "Average Lesion Score, Cecal", "setting": "[8]; 62 ppm", "result": 0.1}, {"measurement": "Average Lesion Score, Intestinal", "setting": "[8]; 62 ppm", "result": 0.9}, {"measurement": "Percent Mortality", "setting": "[8]; 62 ppm", "result": 0, "unit": "%"}, {"measurement": "Percent Weight Gain", "setting": "[8]; 62 ppm", "result": 97, "unit": "%"}, {"measurement": "Average Lesion Score, Cecal", "setting": "[8]; 77 ppm", "result": 0}, {"measurement": "Average Lesion Score, Intestinal", "setting": "[8]; 77 ppm", "result": 0.7}, {"measurement": "Percent Mortality", "setting": "[8]; 77 ppm", "result": 0, "unit": "%"}, {"measurement": "Percent Weight Gain", "setting": "[8]; 77 ppm", "result": 90, "unit": "%"}, {"measurement": "Average Lesion Score, Cecal", "setting": "[8]; 100 ppm", "result": 0.1}, {"measurement": "Average Lesion Score, Intestinal", "setting": "[8]; 100 ppm", "result": 0.6}, {"measurement": "Percent Mortality", "setting": "[8]; 100 ppm", "result": 0, "unit": "%"}, {"measurement": "Percent Weight Gain", "setting": "[8]; 100 ppm", "result": 85, "unit": "%"}, {"measurement": "Average Lesion Score, Cecal", "setting": "[8]; 121 ppm", "result": 0}, {"measurement": "Average Lesion Score, Intestinal", "setting": "[8]; 121 ppm", "result": 0.3}, {"measurement": "Percent Mortality", "setting": "[8]; 121 ppm", "result": 0, "unit": "%"}, {"measurement": "Percent Weight Gain", "setting": "[8]; 121 ppm", "result": 73, "unit": "%"}, {"measurement": "MIC", "setting": "[9]", "result": 2, "unit": "µg/mL"}, {"measurement": "MIC", "setting": "Bacteriodes vulgatis", "result": 4, "unit": "µg/mL"}, {"measurement": "MIC", "setting": "[10]", "result": 32, "unit": "µg/mL"}, {"measurement": "MIC", "setting": "Clostridium septicum", "result": "≤ 0.5", "unit": "µg/mL"}, {"measurement": "MIC", "setting": "Actinomyces israelii", "result": "≤ 0.5", "unit": "µg/mL"}, {"measurement": "ATPase inhibition", "setting": "ATPase", "result": "shown to inhibit ATPase"}]}]}
